Values quoted from earlier work in patent publication US11000479B2, “Injectable long-acting naltrexone microparticle compositions” (Chong Kun Dang Pharmaceutical Corp., priority 2018, dated 2021).

Columns and labels:
[1] = tested on: heroin/diamorphine effects
[2] = tested on: morphine induced analgesia; conditions: rat model, hot-plate test

Structure (SMILES): O=C1CC[C@@]2(O)[C@H]3Cc4ccc(O)c5c4[C@@]2(CCN3CC2CC2)[C@H]1O5 [naltrexone]
- naltrexone level that completely antagonized heroin ([1]; 25 mg of heroin (Verebey et al. 1976)): 2.4 ng/mL
- levels targeted as sufficient to offer protection from fatal opioid overdose ([1]; Hulse et al. 2005, Comer et al. 2002): 1 to 2 ng/mL
- serum naltrexone level sufficient to block pure diamorphine ([1]; doses as high as 500 mg diamorphine, two patients (Brewer 2002)): 2.8 ng/mL
- plasma naltrexone concentration shown to be effective [2]: 1 to 2 ng/mL
